Here are results for 13 molecules from patent publication US5478928A, “2',3'-dideoxy-4'-thioribonucleosides and synthetic precursors thereof” (priority 1993, dated 1995).

For one series, the system named is MT-2 cells. The series is described as follows: Cytotoxicity (cell viability) in MT-2 cells. On the procedure:
(§1) Compounds of the present invention are readily screened for anti-HIV activity by the following standard screening assay in CEM and MT2 cells.
(§2) 1. Compound dilution and delivery to the plates. Test compounds are solubilized in the appropriate vehicle such as distilled water, DMSO, methyl alcohol, or other vehicle. The maximum solubility is determined as appropriate. Latex gloves, lab coats, and masks are used during all phases of the handling process to prevent exposure to potentially harmful agents. At highest solubility, the test compound is prepared and stored at -20° C. until used by the screening laboratory. The first dilution of each compound is made tube with medium to yield a concentration two-fold that of the highest test concentration. Sterile titer tubes are then used to make serial one half log dilutions of each compound. Following dilution, the diluted compound is added to the appropriate well of a 96-well microtiter plate. Up to 12 dilutions can be conveniently assayed in triplicate on a single plate with all appropriate controls, including cell control, virus control, toxicity control, drug color control, medium control and plastic control. When testing includes only six dilutions, two drugs can be assayed on a single microtiter plate. The test compounds are added to the plate in a final volume of 100 microliters.
(§3) 2. Cells and virus. During the time that the test compound dilutions are prepared, cells are washed and counted. Viability is monitored by trypan blue dye exclusion and assays are not performed if the viability falls below 90%. Cells are maintained in an exponential growth phase and are split 1:2 on the day prior to assay to assure adequate growth rate. For the primary screen, the cell line utilized is CEM cells. […] However, both cell lines are available and being used at all times and can be substituted or used in addition to CEM cells as requested. Unless otherwise indicated, the medium is phenol red-free RPMI 1640 with 10% heat-inactivated fetal calf serum (FBS), glutamine and antibiotics. Cells are propagated at 37° C. in an atmosphere of 5% CO2 in air. The virus employed for this work is HIV-1 isolates IIIB and/or RF prepared by the acute infection process as follows: Briefly, virus infected cells are pelleted on a daily basis beginning at three days postinfection until the virus has killed all of the cells in the culture. Reverse transcriptase activity and p24 ELISA are used to identify pools with the greatest amount of virus. These 24-hour harvests are pooled, filtered and frozen at -90° C. Prior to use in the assay the virus is titered on all available cell lines in order to determine the amount of virus required in the assay. In general, pools produced by the acute virus method require the addition of one microliter of infectious virus per well resulting in the screening of drugs on a multiplicity of infection of 0.01. In this manner enough virus is prepared and frozen to complete over one thousand microtiter plates, allowing the testing of up to two thousand compounds from a single stock. […] Virus infection of the CEM cells is carried in a bulk infection process. The appropriate number of cells required to complete the assay are mixed with infectious virus in a conical centrifuge tube in a small total volume of 1-2 milliliters. Following a one hour incubation the infected cells are brought to the appropriate final concentration of 5×10^4 cells per milliliter with fresh tissue culture medium and 100 microliters are added to the appropriate experimental and virus control wells. Uninfected cells at the same concentration are plated for the toxicity controls and for the cell controls.
(§4) 3. Evaluation of CPE-inhibition. Following the addition of cells and test compounds to the microtiter plate, the plate is incubated for 6 days at 37° C.

Series [1] has as its system MT-2 cells infected with HIV virus (HIV-1 isolates IIIB and/or RF). The series is described as follows: Inhibition of HIV cytopathogenic effects (CPE) in MT-2 cells (MTT). The series is classed as cell-based. The conditions noted are these: for IC50: Human immunodeficiency virus 1, IIIB; for TAI (total antiviral index): area between the cytotoxicity and the antiviral curves; for SI (selectivity index): TC25 divided by the ID50. On the procedure: as §1, §2, §3, §4

In series [2] the test system is CEM cells infected with HIV virus (HIV-1 isolates IIIB and/or RF). As to the kind of experiment: Inhibition of HIV cytopathogenic effects (CPE) in CEM cells (MTT). The format is cell-based. The note with it: for SI (selectivity index): TC25 divided by the ID50; for TAI (total antiviral index): area between the cytotoxicity and the antiviral curves; for IC50: Human immunodeficiency virus 1, IIIB, CCRF-CEM, read-out: IC50 (minimum drug concentration that inhibited CPE by 50%). On the procedure: as §1, §2, §3, §4

A further series has as its system CEM cells. The series is described as follows: Cytotoxicity (cell viability) in CEM cells. As for the experimental part: as §1, §2, §3, §4
The subject of another series is AIDS. The conditions noted are these: cited from earlier work.
The mark [3] stands for this setting: MT2, MT-2 cells, means of several experiments, read-out: IC50 (minimum drug concentration that inhibited CPE by 50%).
[4] abbreviates: CEM cells, means of several experiments.
The mark [5] stands for this setting: MT-2 cells, means of several experiments.

≈ marks a conversion by molar mass, not a printed value. Where two headings read alike, the source gives them in different places.

As for `Nc1ccn([C@H]2CC[C@@H](CO)O2)c(=O)n1` [DDC, dideoxycytidine, reference compound], the “TC25 (minimum drug concentration that reduced cell viability by 25%)” value with MT-2 cells (human) was above 9.8 µg/mL; in the series on CEM cells (human) it was 5.3 µg/mL (≈ 25.1 µM). Also, the figures for the IC50 in series [1] (setting [3]) and in series [2] (setting [4]) were 0.44 µg/mL (≈ 2.08 µM) and 0.05 µg/mL (≈ 0.237 µM), respectively. The figures for the “TAI (total antiviral index)” value in series [1] (MT-2 cells) and in series [2] (CEM cells) were above 52 and above 63, respectively. For the same molecule, the “SI (selectivity index)” value in series [2] (CEM cells) came to 120. Besides, in the series with AIDS, the side effects entry is given as “undesirable side effects”.
Turning to `CNc1ncnc2c1ncn2[C@H]1CC[C@@H](CO)S1` [N^6 -Methyl-4'-thio-2',3'-dideoxyadenosine], the “TC25 (minimum drug concentration that reduced cell viability by 25%)” value in the series on MT-2 cells (setting [5]) was above 100 µg/mL. Further, the “TAI (total antiviral index)” value in series [1] (MT-2 cells) was 1.0.
Consider `O=c1[nH]cnc2c1ncn2[C@H]1CC[C@@H](CO)O1` [dideoxyinosine], for which, in the series with AIDS, the side effects result was “undesirable side effects”.
Regarding `Nc1nc2c(ncn2[C@H]2CC[C@@H](CO)S2)c(=O)[nH]1` [4'-thio-2',3'-dideoxy-guanosine, 4'-Thio-2',3'-dideoxy-guanosine], the entries for the “TC25 (minimum drug concentration that reduced cell viability by 25%)” value with MT-2 cells (setting [5]) and in the series with CEM cells (setting [4]) were above 200 µg/mL and above 100 µg/mL, respectively. Moreover, in series [1] (setting [3]), the IC50 came to 98 µg/mL (≈ 367 µM). In series [1] (MT-2 cells), the “SI (selectivity index)” value is reported as 1.6. Besides, the “TAI (total antiviral index)” value is listed as 11.0 in series [1] (MT-2 cells) and 0.0 in series [2] (CEM cells).
Regarding `Nc1nc(N)c2ncn([C@H]3CC[C@@H](CO)S3)c2n1` [9-(4-Thio-2,3-dideoxy-D-ribofuranosyl)-2,6-diaminopurine], in series [2] (CEM cells), the “SI (selectivity index)” value worked out at 2.6 and the “TAI (total antiviral index)” value was determined as 21.0. Moreover, in series [2] (setting [4]), the IC50 is 37 µg/mL (≈ 139 µM). Moreover, in the series with CEM cells (setting [4]), the “TC25 (minimum drug concentration that reduced cell viability by 25%)” value is 97.0 µg/mL (≈ 364 µM).
As for `Cc1cn([C@H]2C[C@H](N=[N+]=[N-])[C@@H](CO)O2)c(=O)[nH]c1=O` [AZT, 3'-azido-3'-deoxythymidine, reference compound], the “TC25 (minimum drug concentration that reduced cell viability by 25%)” value is 9.3 µg/mL (≈ 34.8 µM) with MT-2 cells (setting [5]) and above 10 µg/mL in the series on CEM cells (setting [4]). Besides, the IC50 in series [1] (MT2, read-out: IC50 (minimum drug concentration that inhibited CPE by 50%)) was 0.14 µg/mL (≈ 0.524 µM); in series [2], below 0.03 µg/mL. Further, the entries for the “SI (selectivity index)” value in series [1] (MT-2 cells) and in series [2] (CEM cells) were above 160 and above 313, respectively. Besides, the “TAI (total antiviral index)” value is on record as above 82 in series [1] (MT-2 cells) and above 93 in series [2] (CEM cells). Moreover, the “potency for the treatment of AIDS” value with AIDS (background) is “particularly potent”. Moreover, in the series on AIDS (background), the side effects entry is “undesirable side effects”.
In the case of `OC[C@@H]1CC[C@H](n2cnc3c(O)ncnc32)S1` [4'-thio-2',3'-dideoxyinosine, 4'-Thio-2',3'-dideoxyinosine], in the series with MT-2 cells (setting [5]), the “TC25 (minimum drug concentration that reduced cell viability by 25%)” value was above 100 µg/mL. For the same molecule, the “TAI (total antiviral index)” value in series [1] (MT-2 cells) is above 4.0.
Take `Nc1ncnc2c1ncn2[C@H]1CC[C@@H](CO)S1` [4-'-thio-2'3'-dideoxyadenosine, 4'-Thio-2',3'-dideoxyadenosine]: the “TC25 (minimum drug concentration that reduced cell viability by 25%)” value with MT-2 cells (setting [5]) is above 100 µg/mL. Moreover, the IC50 in series [1] (setting [3]) was determined as 80 µg/mL (≈ 318 µM). For the same molecule, in series [1] (MT-2 cells), the “SI (selectivity index)” value turned out to be 1.3 and the “TAI (total antiviral index)” value is given as above 17.
With `Nc1nc(Cl)nc2c1ncn2[C@H]1CC[C@@H](CO)S1` [9-(4-Thio-2,3-dideoxy-D-ribofuranosyl)-2-chloro-6-aminopurine], the “TC25 (minimum drug concentration that reduced cell viability by 25%)” value in the series on CEM cells (setting [4]) worked out at 5.74 µg/mL (≈ 20.1 µM).
On to `OC[C@@H]1CC[C@H](n2cnc3c(Cl)ncnc32)S1` [9-(4-Thio-2,3-dideoxy-D-ribofuranosyl)-6-chloropurine], for which the “TC25 (minimum drug concentration that reduced cell viability by 25%)” value with MT-2 cells (setting [5]) is 21 µg/mL (≈ 77.6 µM). In addition, in series [1] (MT-2 cells), the “TAI (total antiviral index)” value came to 0.0.
For `Cc1cn([C@H]2C[C@H](N=[N+]=[N-])[C@@H](CO)S2)c(=O)[nH]c1=O`, in series [2] (CEM cells), the “SI (selectivity index)” value was above 222.02 and the “TAI (total antiviral index)” value is given as above 60.15. Besides, the IC50 in series [2] (setting [4]) turned out to be 0.45 µg/mL (≈ 1.59 µM). The “TC25 (minimum drug concentration that reduced cell viability by 25%)” value with CEM cells (setting [4]) was above 100 µg/mL.
In the case of `Cc1cn([C@H]2CC[C@@H](CO)S2)c(=O)[nH]c1=O` [4'-thio-3'-deoxythymidine, 4'-Thio-3'-deoxythymidine], the “TC25 (minimum drug concentration that reduced cell viability by 25%)” value is above 100 µg/mL with MT-2 cells (setting [5]) and above 150 µg/mL in the series on CEM cells (setting [4]). In addition, the figures for the “TAI (total antiviral index)” value in series [1] (MT-2 cells) and in series [2] (CEM cells) were above 4.0 and 4.0, respectively.
`Nc1ccn([C@H]2CC[C@@H](CO)S2)c(=O)n1` [4'-thio-2',3'-dideoxycytidine, 4'-Thio-2',3'-dideoxycytidine]: in series [2] (CEM cells), the “SI (selectivity index)” value is reported as above 100 and the “TAI (total antiviral index)” value is recorded as above 65. The IC50 in series [2] (setting [4]) amounted to 1 µg/mL (≈ 4.4 µM). Besides, in the series with CEM cells (setting [4]), the “TC25 (minimum drug concentration that reduced cell viability by 25%)” value was above 100 µg/mL.
